Like-named read-outs stand apart in the source and are kept apart here.
Experiments:
DENV-4 strain H241 = assay: Tetravalent RT-qPCR assay Protocol A, serotype 4; format: cell-based; settings: Dengue virus, DENV4, 72 h; RT-qPCR serotype 4 H241, Vero cells, day 3
Description: (§1) The antiviral activity of the compounds of the invention was tested against DENV-1 strain TC974#666 (NCPV), DENV-2 strain 16681, DENV-3 strain H87 (NCPV) and DENV-4 strain H241 (NCPV) in a RT-qPCR assay. Therefore, Vero cells were infected with either DENV-1, or -2, or -3, or -4 in the presence or absence of test compounds. At day 3 post-infection, the cells were lysed and cell lysates were used to prepare cDNA of both a viral target (the 3′UTR of DENV; Table 2) and a cellular reference gene (β-actin, Table 2). Subsequently, a duplex real time PCR was performed on a Lightcycler480 instrument. The generated Cp value is inversely proportional to the amount of RNA expression of these targets. Inhibition of DENV replication by a test compound results in a shift of Cp's for the 3′UTR gene. On the other hand, if a test compound is toxic to the cells, a similar effect on β-actin expression will be observed. The comparative ΔΔCp method is used to calculate EC50, which is based on the relative gene expression of the target gene (3′UTR) normalized with the cellular housekeeping gene (β-actin). In addition, CC50 values are determined based on the Cp values acquired for the housekeeping gene β-actin.
(§2) The culture medium consisted of minimal essential medium supplemented with 2% of heat-inactivated fetal calf serum, 0.04% gentamycin (50 mg/mL) and 2 mM of L-glutamine. Vero cells, obtained from ECACC, were suspended in culture medium and 75 μL/well was added in 96-well plates (10000 cells/well), which already contain the antiviral compounds. […] In addition, each plate contains wells which are assigned as virus controls (containing cells and virus in the absence of compound) and cell controls (containing cells in the absence of virus and compound). Once the cells were added in the plates, the plates were incubated in a fully humidified incubator (37° C., 5% CO2) until the next day. Dengue viruses serotype-1, 2, 3 and 4 were diluted in order to obtain a Cp of ˜22-24 in the assay. Therefore, 25 μL of virus suspension was added to all the wells containing test compound and to the wells assigned as virus control. In parallel, 25 μL of culture medium was added to the cell controls. Next, the plates were incubated for 3 days in a fully humidified incubator (37° C., 5% CO2). After 3 days, the supernatant was removed from the wells and the cells were washed twice with ice-cold PBS (˜100 μL). The cell pellets within the 96-well plates were stored at −80° C. for at least 1 day. Next, RNA was extracted using the Cells-to-CT™ lysis kit, according to the manufacturer's guideline (Life Technologies). The cell lysates can be stored at −80° C. or immediately used in the reverse transcription step.
(§3) In preparation of the reverse transcription step, mix A (table 3A) was prepared and 7.57 μL/well was dispensed in a 96-well plate. After addition of 5 μL of the cell lysates, a five minute denaturation step at 75° C. was performed (table 3B). Afterwards, 7.43 μL of mix B was added (table 3C) and the reverse transcription step was initiated (table 3D) to generate cDNA.
(§4) Finally, a RT-qPCR mix was prepared, mix C (table 4A), and 22.02 μL/well was dispensed in 96-well LightCycler qPCR plates to which 3 μL of cDNA was added and the qPCR was performed according to the conditions in table 4B on a LightCycler 480.
(§5) Using the LightCycler software and an in-house LIMS system, dose response curves for each compound were calculated and the half maximal effective concentration (EC50) and the half maximal cytotoxic concentration (CC50) were determined (Tables 5-8).

DENV-3 strain H87 = assay: Tetravalent RT-qPCR assay Protocol A, serotype 3; format: cell-based; settings: Dengue virus, DENV3, 72 h; RT-qPCR serotype 3 H87, Vero cells, day 3
Description: as §1, §2, §3, §4, §5

Vero cells = settings: African green monkey
DENV-1 strain TC974#666 = assay: Tetravalent RT-qPCR assay Protocol A, serotype 1; format: cell-based; settings: Dengue virus, DENV1, 72 h; RT-qPCR serotype 1 TC974#666, Vero cells, day 3
Description: as §1, §2, §3, §4, §5

DENV-2 strain 16681 = assay: Tetravalent RT-qPCR assay Protocol A, serotype 2; format: cell-based; settings: Dengue virus
Description: as §1, §2, §3, §4, §5

DENV-2 16681 strain = assay: DENV-2 antiviral assay (eGFP fluorescence, Vero cells); format: cell-based, Dengue virus; settings: DENV-2 16681 eGFP, MOI 0.5, 3 days
Description: The antiviral activity of all the compounds of the invention was tested against the DENV-2 16681 strain which was labeled with enhanced green fluorescent protein (eGPF). The culture medium consists of minimal essential medium supplemented with 2% of heat-inactivated fetal calf serum, 0.04% gentamycin (50 mg/mL) and 2 mM of L-glutamine. Vero cells, obtained from ECACC, were suspended in culture medium and 25 μL was added to 384-well plates (2500 cells/well), which already contain the antiviral compounds. Typically, these plates contain a 5-fold serial dilution of 9 dilution steps of the test compound at 200 times the final concentration in 100% DMSO (200 nL). […] Finally, each plate contains wells which are assigned as virus controls (containing cells and virus in the absence of compound), cell controls (containing cells in the absence of virus and compound) and medium controls (containing medium in the absence of cells, virus and compounds). To the wells assigned as medium control, 25 μL of culture medium was added instead of Vero cells. Once the cells were added to the plates, the plates were incubated for 30 minutes at room temperature to allow the cells to distribute evenly within the wells. Next, the plates were incubated in a fully humidified incubator (37° C., 5% CO2) until the next day. Then, DENV-2 strain 16681, labeled with eGFP, was added at a multiplicity of infection (MOI) of 0.5. Therefore, 15 μL of virus suspension was added to all the wells containing test compound and to the wells assigned as virus control. In parallel, 15 μL of culture medium was added to the medium and cell controls. Next, the plates were incubated for 3 days in a fully humidified incubator (37° C., 5% CO2). At the day of the read out, the eGFP fluorescence was measured using an automated fluorescence microscope at 488 nm (blue laser). Using an in-house LIMS system, inhibition dose response curves for each compound were calculated and the half maximal effective concentration (EC50) was determined. Therefore, the percent inhibition (I) for every test concentration is calculated using the following formula: I=100*(ST-SCC)/(SVC-SCC), ST, SCC and SVC are the amount of eGFP signal in the test compound, cell control and virus control wells, respectively. The EC50 represents the concentration of a compound at which the virus replication is inhibited with 50%, as measured by a 50% reduction of the eGFP fluorescent intensity compared to the virus control. The EC50 is calculated using linear interpolation (Table 1).

in vitro = settings: African green monkey
[1] = DENV2, 72 h, RT-qPCR serotype 2 16681, Vero cells, day 3, read-out: EC50

Row | Compound | EC50 (DENV-4 strain H241) [nM] | EC50 (DENV-3 strain H87) [nM] | CC50 (Vero cells) [nM] | EC50 (DENV-1 strain TC974#666) [nM] | EC50 (DENV-2 strain 16681; [1]) [nM] | EC50 (DENV-2 16681 strain) [nM] | EC50 (DENV-2 strain 16681; DENV2, Vero, 72 h) [nM] | CC50 (in vitro) [nM] | EC50 (DENV-2 16681 strain; Dengue virus, DENV2, Vero, 72 h) [nM]
1 | COc1cc(NC(C(=O)N2CCc3cc(F)c(C(F)(F)F)cc32)c2ccc(Cl)cc2OCCO)cc(-n2cncn2)c1 (single isomer, unassigned) [Compound 7B] | 120 | 13 | 7600 | 0.88 | 1.9 | 1.8 |  |  | 
2 | COc1cc(NC(C(=O)N2CCc3cc(F)c(OC(F)(F)F)cc32)c2ccc(Cl)cc2OCCCC(=O)O)cc(-n2cncn2)c1 (single isomer, unassigned) [Compound 15B] | 15 | 2.8 | 11000 | 0.13 |  | 0.13 | 0.1 |  | 
3 | COc1cc(NC(C(=O)N2CCc3cc(F)c(OC(F)(F)F)cc32)c2ccc(Cl)cc2OCCO)cc(-n2cncn2)c1 (single isomer, unassigned) [Compound 9B] | 87 | 6.4 | 10000 | 0.99 | 0.47 | 0.6 |  |  | 
4 | COc1cc(NC(C(=O)N2CCc3ccc(OC(F)(F)F)cc32)c2ccc(F)cc2OCCO)cc(-n2cncn2)c1 (single isomer, unassigned) [Compound 3B] | 98 | 23 | 8700 | 2.4 | 1.4 | 0.99 |  |  | 
5 | COc1cc(NC(C(=O)N2CCc3cc(F)c(OC(F)(F)F)cc32)c2ccc(Cl)cc2OCCO)cc(-n2cncn2)c1 (single isomer, unassigned) [Compound 9A] |  |  | 4200 |  |  | 250 |  |  | 
6 | COc1cc(NC(C(=O)N2CCc3ccc(OC(F)(F)F)cc32)c2ccc(Cl)cc2OCCCC(=O)O)cc(-n2cncn2)c1 (single isomer, unassigned) [Compound 13B] |  |  | 12000 |  |  | 12 |  |  | 
7 | COc1cc(NC(C(=O)N2CCc3cc(OC)c(C(F)(F)F)cc32)c2ccc(Cl)cc2OCCCC(=O)O)cc(-n2cncn2)c1 (single isomer, unassigned) [Compound 12B] |  |  | 12000 |  |  | 320 |  |  | 
8 | COc1cc(NC(C(=O)N2CCc3c(C)cc(OC(F)(F)F)cc32)c2ccc(Cl)cc2OCCO)cc(-n2cncn2)c1 (single isomer, unassigned) [Compound 10B] | 32 | 5.9 | 11000 | 0.36 | 0.15 | 0.25 |  |  | 
9 | COc1cc(NC(C(=O)N2CCc3cc(OC)c(OC(F)(F)F)cc32)c2ccc(Cl)cc2OCCO)cc(-n2cncn2)c1 (single isomer, unassigned) [Compound 8A] | 56 | 15 |  | 2 |  | 1.5 | 0.38 | 12000 | 
10 | COc1cc(NC(C(=O)N2CCc3cc(OC)c(OC(F)(F)F)cc32)c2ccc(Cl)cc2OCCO)cc(-n2cncn2)c1 (single isomer, unassigned) [Compound 8B] |  |  | 12000 |  |  | 250 |  |  | 
11 | COc1cc(NC(C(=O)N2CCc3ccc(OC(F)(F)F)cc32)c2ccc(Cl)cc2OCCO)cc(-n2cncn2)c1 (single isomer, unassigned) [Compound 6A] | 60 | 8.1 |  | 0.64 | 0.49 | 0.59 |  | 8500 | 
12 | COc1cc(NC(C(=O)N2CCc3cc(OC)c(C(F)(F)F)cc32)c2ccc(Cl)cc2OCCCC(=O)O)cc(-n2cncn2)c1 (single isomer, unassigned) [Compound 12A] | 100 | 36 |  | 2.1 | 0.42 | 1.2 |  | 13000 | 
13 | COc1cc(NC(C(=O)N2CCc3ccc(OC(F)(F)F)cc32)c2ccc(Cl)cc2OCCO)cc(-n2cncn2)c1 (single isomer, unassigned) [Compound 6B] |  |  | 7300 |  |  | 92 |  |  | 
14 | COc1cc(NC(C(=O)N2CCc3cc(F)c(C(F)(F)F)cc32)c2ccc(Cl)cc2OCCO)cc(-n2cncn2)c1 (racemic) [Compound 7, 2-(4-chloro-2-(2-hydroxyethoxy)phenyl)-1-(5-fluoro-6-(trifluoromethyl)indolin-1-yl)-2-((3-methoxy-5-(1H-1,2,4-triazol-1-yl)phenyl)amino)ethanone] |  |  |  |  |  |  |  | 10000 | 3
15 | COc1cc(NC(C(=O)N2CCc3ccc(OC(F)(F)F)cc32)c2ccc(F)cc2OCCO)cc(-n2cncn2)c1 (single isomer, unassigned) [Compound 3A] |  |  |  |  |  | 520 |  | 11000 | 
